This is an account of results in the Kinase Knowledgebase extract (Sharma et al. 2016).

For the assay, the target named is EGFR (UniProt P00533).
Chain of EGFR (P00533 whole entry, looked up): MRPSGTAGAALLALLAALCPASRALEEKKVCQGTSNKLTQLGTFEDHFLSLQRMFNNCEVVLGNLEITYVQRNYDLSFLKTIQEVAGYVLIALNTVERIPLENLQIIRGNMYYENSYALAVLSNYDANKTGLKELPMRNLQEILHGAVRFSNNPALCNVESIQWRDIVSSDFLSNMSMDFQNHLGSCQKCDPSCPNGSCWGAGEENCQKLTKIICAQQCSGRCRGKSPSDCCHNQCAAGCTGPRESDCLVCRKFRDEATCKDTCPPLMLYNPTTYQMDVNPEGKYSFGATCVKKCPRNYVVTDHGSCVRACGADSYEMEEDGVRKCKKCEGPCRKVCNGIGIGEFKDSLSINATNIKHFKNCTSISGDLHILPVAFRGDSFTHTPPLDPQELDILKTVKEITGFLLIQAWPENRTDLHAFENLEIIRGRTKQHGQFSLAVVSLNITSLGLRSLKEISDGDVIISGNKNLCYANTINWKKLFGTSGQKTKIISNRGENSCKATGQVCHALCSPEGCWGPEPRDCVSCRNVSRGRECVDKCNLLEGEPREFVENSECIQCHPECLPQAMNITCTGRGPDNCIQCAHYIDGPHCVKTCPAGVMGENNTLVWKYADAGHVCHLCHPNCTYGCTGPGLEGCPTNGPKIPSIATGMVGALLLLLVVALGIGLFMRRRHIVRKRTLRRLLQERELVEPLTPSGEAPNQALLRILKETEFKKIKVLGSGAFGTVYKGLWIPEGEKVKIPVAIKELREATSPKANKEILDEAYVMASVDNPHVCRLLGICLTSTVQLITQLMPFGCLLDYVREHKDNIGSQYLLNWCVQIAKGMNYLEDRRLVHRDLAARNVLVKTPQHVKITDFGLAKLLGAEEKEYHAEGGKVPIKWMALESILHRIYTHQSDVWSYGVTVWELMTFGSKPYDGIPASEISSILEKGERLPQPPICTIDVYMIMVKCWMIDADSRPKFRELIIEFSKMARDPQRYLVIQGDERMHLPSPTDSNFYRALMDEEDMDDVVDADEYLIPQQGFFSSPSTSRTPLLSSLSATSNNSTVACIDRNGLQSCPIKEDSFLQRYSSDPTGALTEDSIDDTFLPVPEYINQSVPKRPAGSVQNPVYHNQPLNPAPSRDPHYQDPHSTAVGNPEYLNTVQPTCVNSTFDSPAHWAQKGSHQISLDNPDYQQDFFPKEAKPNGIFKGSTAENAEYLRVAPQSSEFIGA
For orientation: IC50 means the point on the concentration scale where inhibition reaches its midpoint. `COc1cc2c(Nc3ccc(Cl)c(Cl)c3)ncnc2cc1OCC1CN(C(=O)c2ccoc2)CCO1` (stereo not drawn): the IC50 was < 50 nM. Regarding `COc1cc2c(Nc3cc(F)c(Br)c(F)c3)ncnc2cc1OCC1CN(C)CCO1` (stereo not drawn), the IC50 is < 50 nM. The value for `COc1cc2c(Nc3ccc(F)cc3Cl)ncnc2cc1O[C@@H]1CO[C@@H]2[C@H]1OC[C@H]2F` was < 50 nM. The value for `COc1cc2c(Nc3ccc(Cl)c(Cl)c3)ncnc2cc1OCc1csc(N2CCN(C)CC2)n1` was < 50 nM; that for `COc1cc2c(Nc3ccc(Br)c(Cl)c3Cl)ncnc2cc1OC[C@@H]1CN2CCOC[C@H]2CO1` was < 50 nM; that for `COc1cc2c(Nc3ccc(Cl)c(Cl)c3)ncnc2cc1OCC1CN(CC2CCCCO2)CCO1` (stereo not drawn) was < 50 nM.

In the case of `COc1cc2c(Nc3cccc(Br)c3C)ncnc2cc1OCC1CN(C)CCO1` (stereo not drawn), the IC50 is < 50 nM. `COc1cc2c(Nc3ccc(Cl)c(Cl)c3)ncnc2cc1OCC1CN(Cc2ccc(F)cc2)CCO1` (stereo not drawn): the IC50 was < 50 nM. The figure for `COC(=O)CCCCN1CCOC(COc2cc3ncnc(Nc4ccc(Cl)c(Cl)c4)c3cc2OC)C1` (stereo not drawn) is < 50 nM. Consider `COc1cc2c(Nc3ccc(Cl)c(Cl)c3)ncnc2cc1OCC1CN(CCCCCC#N)CCO1` (stereo not drawn), for which the IC50 was < 50 nM. Take `CCNC(=NC#N)N1CCOC(COc2cc3ncnc(Nc4ccc(Cl)c(Cl)c4)c3cc2OC)C1` (stereo not drawn): the IC50 was < 50 nM.

In the case of `COc1cc2c(Nc3cccc(C(F)(F)F)c3F)ncnc2cc1O[C@@H]1CO[C@@H]2[C@H]1OC[C@H]2F`, the IC50 was < 50 nM. With `COc1cc2c(Nc3ccc(Cl)c(Cl)c3)ncnc2cc1OCC1CCC1`, the IC50 is < 50 nM. Turning to `COc1cc2c(Nc3ccc(Cl)c(Cl)c3)ncnc2cc1OCC1CN(c2ccncc2)CCO1` (stereo not drawn), the IC50 is < 50 nM.

For the compound `COc1cc2c(Nc3ccc(Cl)c(Cl)c3)ncnc2cc1OCC1CN(C(=O)CCc2ccccc2)CCO1` (stereo not drawn), the IC50 was < 50 nM.

On to `COc1cc2c(Nc3ccc(Cl)c(Cl)c3)ncnc2cc1OCc1noc(C2CCCCN2C(=O)OC(C)(C)C)n1` (stereo not drawn), for which the IC50 is < 50 nM. For `COc1cc2c(Nc3ccc(Cl)c(Cl)c3)ncnc2cc1OCC1CN(CCC(C)C)CCCO1` (stereo not drawn), the IC50 is < 50 nM.

Turning to `CCCCCCCCN1CCOC(COc2cc3ncnc(Nc4ccc(Cl)c(Cl)c4)c3cc2OC)C1` (stereo not drawn), the IC50 is < 50 nM.

On to `COc1cc2c(Nc3ccc(Cl)c(Cl)c3)ncnc2cc1OCc1csc(-c2ccc(C(F)(F)F)cc2)n1`, for which the IC50 was 50 to 1000 nM. The value for `CCN1CCCOC(COc2cc3ncnc(Nc4ccc(Cl)c(Cl)c4)c3cc2OC)C1` (stereo not drawn) was < 50 nM. The value for `COc1cc2c(Nc3cc(Cl)c(Br)cc3F)ncnc2cc1OC[C@H]1C[C@@H]2CN(C)C[C@@H]2C1` was < 50 nM; that for `COc1cc2c(Nc3cc(Cl)c(Br)cc3F)ncnc2cc1OC[C@H]1CN2CCOC[C@H]2CO1` was < 50 nM. The figure for `COc1cc2c(Nc3ccc(Br)c(Cl)c3)ncnc2cc1O[C@H]1CO[C@H]2[C@@H]1OC[C@@]21COC(C)(C)O1` is < 50 nM. In the case of `COc1cc2c(Nc3ccc(Cl)c(Cl)c3Cl)ncnc2cc1O[C@H]1CO[C@H]2[C@@H]1OC[C@@H]2OC`, the IC50 is < 50 nM. On to `COCCOc1cc2c(Nc3ccc(Cl)c(Cl)c3)ncnc2cc1OCC1CNCCO1` (stereo not drawn), for which the IC50 was < 50 nM. As for `COc1cc2c(Nc3cccc(Cl)c3C)ncnc2cc1O[C@H]1CO[C@H]2[C@@H]1OC[C@@H]2OC`, the IC50 was < 50 nM. Regarding `COc1cc2c(Nc3cccc(Cl)c3F)ncnc2cc1O[C@H]1CO[C@@H]2[C@H]1OC[C@@H]2F`, the IC50 was < 50 nM. The value for `COc1cc2c(Nc3ccc(Cl)c(Cl)c3)ncnc2cc1OCC1CN(CCC2OCCCO2)CCO1` (stereo not drawn) was < 50 nM; that for `COc1cc2c(Nc3ccc(Cl)c(Cl)c3)ncnc2cc1OCC1CN(CCCc2ccccc2)CCO1` (stereo not drawn) was < 50 nM; that for `COc1cc2c(Nc3ccc(Cl)c(Cl)c3)ncnc2cc1OCc1cc(Br)cc(Br)c1` was 50 to 1000 nM.

Turning to `COc1cc2c(Nc3ccc(Cl)c(Cl)c3)ncnc2cc1OCC1CN2CCOCC2CO1` (stereo not drawn), the IC50 was < 50 nM. On to `COc1cc2c(Nc3ccc(Cl)c(Cl)c3)ncnc2cc1OCCC1CN(C(=O)OC(C)(C)C)C(C)(C)CO1` (stereo not drawn), for which the half-maximal inhibitory concentration (IC50) is < 50 nM. The figure for `COc1cc2c(Nc3ccccc3Cl)ncnc2cc1O[C@@H]1CO[C@@H]2[C@H]1OC[C@H]2F` is < 50 nM; for `CCCCCCN1CCOC(COc2cc3ncnc(Nc4ccc(Cl)c(Cl)c4)c3cc2OC)C1` (stereo not drawn) it is < 50 nM.

As for `COc1cc2c(Nc3ccc(Br)c(Cl)c3)ncnc2cc1O[C@H]1CO[C@@H]2[C@H]1OC[C@@H]2OC(C)=O`, the half-inhibitory concentration (IC50) is < 50 nM. The figure for `COc1cc2c(Nc3ccc(Cl)c(Cl)c3)ncnc2cc1OCC1CN(C(=NC#N)N2CCCCC2)CCO1` (stereo not drawn) is < 50 nM; for `COc1cc2c(Nc3ccc(F)cc3F)ncnc2cc1O[C@@H]1CO[C@@H]2[C@H]1OC[C@H]2F` it is < 50 nM; for `COc1cc2c(Nc3ccc(Cl)c(Cl)c3Cl)ncnc2cc1O[C@@H]1CO[C@@H]2[C@H]1OC[C@H]2F` it is < 50 nM. The figure for `COc1cc2c(Nc3ccc(Cl)c(Cl)c3)ncnc2cc1OCc1csc(N2CCOCC2)n1` is < 50 nM; for `COc1cc2c(Nc3ccc(Cl)c(Cl)c3)ncnc2cc1OCC1CN(S(=O)(=O)c2ccc(C)cc2)CCO1` (stereo not drawn) it is < 50 nM. The value for `COc1cc2c(Nc3ccc(Br)c(Cl)c3F)ncnc2cc1OCC1CN(C)CCO1` (stereo not drawn) was < 50 nM. In the case of `COc1cc2c(Nc3ccc(Cl)c(Cl)c3)ncnc2cc1OCc1noc(C2CCCN2)n1` (stereo not drawn), the IC50 was < 50 nM. The value for `COc1cc2c(Nc3ccc(Br)c(Cl)c3)ncnc2cc1O[C@H]1CO[C@H]2[C@@H]1OC[C@]2(O)C(F)(F)F` was < 50 nM; that for `CCC(CC)CN1CCCOC(COc2cc3ncnc(Nc4ccc(Cl)c(Cl)c4)c3cc2OC)C1` (stereo not drawn) was < 50 nM; that for `COc1cc2c(Nc3ccc(Cl)c(Cl)c3)ncnc2cc1OCC1CCCO1` (stereo not drawn) was < 50 nM. In the case of `COc1cc2c(Nc3cc(Cl)ccc3C)ncnc2cc1O[C@@H]1CO[C@@H]2[C@H]1OC[C@H]2F`, the IC50 is < 50 nM. For `COc1cc2c(Nc3ccc(Cl)c(Cl)c3)ncnc2cc1OCc1nc([C@@H]2CCCN2C)no1`, the IC50 is < 50 nM. Regarding `CCOc1cc2c(Nc3ccc(Cl)c(Cl)c3)ncnc2cc1OCC1CNCCO1` (stereo not drawn), the IC50 is < 50 nM. As to `COc1cc2c(Nc3ccc(Cl)c(Cl)c3F)ncnc2cc1O[C@H]1CO[C@H]2[C@@H]1OC[C@@H]2OC`, the IC50 was < 50 nM. On to `COc1cc2c(Nc3ccc(Cl)c(Cl)c3)ncnc2cc1OCCN1C(=O)c2ccccc2C1=O`, for which the IC50 is < 50 nM. `COc1cc2c(Nc3ccc(Cl)c(Cl)c3)ncnc2cc1OCc1csc(-c2ccc(Cl)cc2)n1` had an IC50 of 50 to 1000 nM. For `COc1cc2c(Nc3ccc(Cl)c(Cl)c3)ncnc2cc1OCc1noc(C2CCN(C(=O)OC(C)(C)C)CC2)n1`, the IC50 is < 50 nM. The figure for `COc1cc2c(Nc3ccc(Cl)c(Cl)c3)ncnc2cc1OCc1csc(N2CCNCC2)n1` is < 50 nM. For `COCCOc1cc2c(Nc3ccc(Cl)c(Cl)c3)ncnc2cc1OCC1CN(C)CCO1` (stereo not drawn), the IC50 was < 50 nM. Take `COc1cc2c(Nc3ccc(Br)c(Cl)c3Cl)ncnc2cc1O[C@@H]1CO[C@@H]2[C@H]1OC[C@H]2F`: the half-inhibitory concentration (IC50) is < 50 nM. Turning to `COc1cc2c(Nc3ccc(Br)c(Cl)c3F)ncnc2cc1OC[C@@H]1CN2CCOC[C@H]2CO1`, the IC50 is < 50 nM.

With `COc1cc2c(Nc3ccc(Cl)c(Cl)c3)ncnc2cc1OCCN1CCOCC1`, the IC50 was < 50 nM. `COc1cc2c(Nc3ccc(Br)cc3F)ncnc2cc1OCC1CN(C)CCO1` (stereo not drawn): the IC50 was < 50 nM.
